Article PMC10201364 (MicrobiologyOpen, 2023)

How the values were obtained:
[1] = molecular target: Ah‐BarR M103N (P ah‐barR promoter, mKate2 reporter) (Acidianus hospitalis, UniProt F4B5V3, M103N); experiment: cell-based; assay type: cell-based
Procedure: (§1) Reporter gene assays were performed as previously described (Bernauw et al., [2022]). pPRC6 and pITC variants (Table 1) were co‐transformed in E. coli MG1655 chemical competent cells using heat shock transformation. Transformant colonies of the Ah‐BarR biosensor strains were picked to inoculate wells of a transparent 96‐well plate (Greiner Bio‐One), each well filled with 200 µL of MOPS EZ Rich Defined medium (Teknova), prepared without the addition of the 5X EZ Supplement, after which the plate was incubated overnight in a ThermoMixer C (Eppendorf) at 30°C and 300 rpm. Next, a black 96‐well plate was filled with a naringenin solution prepared in ethanol (250 mg/L or 2.5 g/L), after which a Breathe‐Easy sealing membrane (Sigma‐Aldrich) was applied and the ethanol was evaporated in a ThermoMixer C (Eppendorf) at 75°C. […] Finally, the plate was sealed again using a Breathe‐Easy sealing membrane (Sigma‐Aldrich).
(§2) Plates were incubated at 30°C and 300 rpm for 40 h in a Synergy H1 microplate reader (BioTek) with measurements of OD600 and fluorescence (excitation wavelength: 588 nm, emission wavelength: 633 nm) being taken every 20 min. The gain was set to 140 for all measurements, except for the measurements with the amino acids (pools and separately), where the gain was set to 150. […] In addition, wells solely containing medium were measured as well to correct for the background signal.
(§3) Reporter expression was analyzed at t = 30 h, when all cultures had reached the stationary phase, by taking into account three subsequent time points (t–1, t, t+1). The corrected FL/OD600 value was calculated for each replicate (n = 4) as follows: FL/ODcor=FLt−1−FLmed,t−1/ODt−1−ODmed,t−1+FLt−FLmed,t/ODt−ODmed,t+FLt+1−FLmed,t+1/ODt+1−ODmed,t+1/3
(§4) Response curves were fitted to a Hill function of the shape P(M)=b+aM^n/θ^n+M^nforaβ−alanine−inducible responseb+aθ^n/θ^n+M^nforaβ−alanine−repressible response according to a previously published procedure (Landry et al., [2018]) with minor adaptations. […] Briefly, lmfit 1.1.0 was used to fit all replicates of a response curve to the appropriate Hill function using the Levenberg‐Marquardt algorithm (Moré, [1978]; Newville et al., [2016]). […] The dynamic range was estimated as μ=a/b .

[2] = molecular target: Ah‐BarR M103T (P ah‐barR promoter, mKate2 reporter) (Acidianus hospitalis, UniProt F4B5V3, M103T); experiment: cell-based; assay type: cell-based
Procedure: as §1, §2, §3, §4

[3] = system: 274‐bp DNA fragment harboring the entire barR‐aminotransferase intergenic region (WT promoter); experiment: EMSA of Ah‐BarR with WT promoter fragment; set-up: species or system Acidianus hospitalis; conditions: 5 mM β‐alanine added to binding reactions
Procedure: Electrophoretic mobility shift assays (EMSAs) were performed as described (Charlier & Bervoets, [2022]). Either the forward or the reverse primer was radioactively labeled, using fresh γ‐^32P‐ATP (Perkin Elmer) and T4 polynucleotide kinase (Thermo Scientific). Labeled promoter fragments were obtained by PCR using Taq DNA polymerase (Promega), a ^32P‐labeled primer, a non‐labeled second primer, and a plasmid template (Table A4). Labeled fragments were purified by acrylamide gel electrophoresis. EMSA reactions were prepared in protein‐DNA binding buffer (20 mM Tris‐HCl pH 8.0, 50 mM NaCl, 0.4 mM EDTA, 0.1 mM DTT, 1 mM MgCl2, 12.5% glycerol) with each reaction containing 1 µL (20 cps/µL) of ^32P‐labeled promoter fragment, an excess (25 µg/mL) of non‐labeled, nonspecific competitor DNA (sonicated salmon sperm DNA, Invitrogen), and purified Ah‐BarR protein. Amino acids were added to the reactions in the mentioned concentrations. […] Scans of the gels were analyzed by densitometry using ImageJ (Schneider et al., [2012]), after which GraphPad PRISM (version 9.3.1 for Windows, GraphPad Software, www.graphpad.com) was used to perform Hill curve fitting using nonlinear regression for saturated binding (one site, specific binding), and to determine apparent equilibrium dissociation constants K D.

[4] = molecular target: Ah‐BarR trunc (P ah‐barR promoter, mKate2 reporter) (Acidianus hospitalis, UniProt F4B5V3)
Procedure: as §1, §2, §3, §4

[5] = molecular target: Ah‐BarR M103A (P ah‐barR promoter, mKate2 reporter) (Acidianus hospitalis, UniProt F4B5V3, M103A); experiment: cell-based
Procedure: as §1, §2, §3, §4

[6] = molecular target: Ah‐BarR T134A (P ah‐barR promoter, mKate2 reporter) (Acidianus hospitalis, UniProt F4B5V3, T134A); experiment: cell-based
Procedure: as §1, §2, §3, §4

[7] = molecular target: Ah‐BarR T136A (P ah‐barR promoter, mKate2 reporter) (Acidianus hospitalis, UniProt F4B5V3, T136A); experiment: cell-based
Procedure: as §1, §2, §3, §4

[8] = molecular target: Ah‐BarR (S. acidocaldarius promoter P sa‐at, mKate2 reporter) (Acidianus hospitalis, UniProt F4B5V3); experiment: cell-based
Procedure: as §1, §2, §3, §4
(§5) Additional in vivo experiments were performed on strains BS3 and BS4 using the S. acidocaldarius promoters P sa‐barR and P sa‐at , respectively, in combination with Ah‐BarR.

[9] = molecular target: Ah‐BarR (S. acidocaldarius promoter P sa‐barR, mKate2 reporter) (Acidianus hospitalis, UniProt F4B5V3); experiment: cell-based
Procedure: as §1, §2, §3, §4, §5

[10] = BS1 M103T, β‐alanine 0–10 mM, 20 mg/L naringenin, Hill fit
[11] = BS1 M103A, β‐alanine 0–10 mM, 20 mg/L naringenin, Hill fit
[12] = BS1 T134A, β‐alanine 0–10 mM, 20 mg/L naringenin, Hill fit
[13] = BS1 T136A, β‐alanine 0–10 mM, 20 mg/L naringenin, Hill fit
[14] = BS4, β‐alanine 0–10 mM, 20 mg/L naringenin, Hill fit
[15] = BS3, β‐alanine 0–10 mM, 20 mg/L naringenin, Hill fit

Ah‐BarR M103N (P ah‐barR promoter, mKate2 reporter), sequence (F4B5V3 entry or part of it M103N): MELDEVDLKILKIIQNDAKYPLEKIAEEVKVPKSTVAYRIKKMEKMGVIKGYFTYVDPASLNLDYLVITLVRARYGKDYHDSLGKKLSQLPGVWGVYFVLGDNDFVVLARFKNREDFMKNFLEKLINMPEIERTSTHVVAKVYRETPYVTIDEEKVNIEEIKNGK
Ah‐BarR T136A (P ah‐barR promoter, mKate2 reporter), sequence (F4B5V3 entry or part of it T136A): as the sequence (F4B5V3 entry or part of it M103N) above, with N103M, T136A counted along it
Ah‐BarR M103T (P ah‐barR promoter, mKate2 reporter), sequence (F4B5V3 entry or part of it M103T): as the sequence (F4B5V3 entry or part of it M103N) above, with N103T counted along it
Ah‐BarR trunc (P ah‐barR promoter, mKate2 reporter), sequence (F4B5V3 entry or part of it): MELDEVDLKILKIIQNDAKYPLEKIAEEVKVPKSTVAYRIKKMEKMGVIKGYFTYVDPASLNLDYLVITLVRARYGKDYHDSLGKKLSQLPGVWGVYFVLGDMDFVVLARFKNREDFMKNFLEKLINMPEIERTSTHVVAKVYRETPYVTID
Ah‐BarR (S. acidocaldarius promoter P sa‐at, mKate2 reporter), sequence (F4B5V3 1-165): as the sequence (F4B5V3 entry or part of it M103N) above, with N103M counted along it
Ah‐BarR (S. acidocaldarius promoter P sa‐barR, mKate2 reporter), sequence (F4B5V3 1-165): as the sequence (F4B5V3 entry or part of it M103N) above, with N103M counted along it
Ah‐BarR M103A (P ah‐barR promoter, mKate2 reporter), sequence (F4B5V3 entry or part of it M103A): as the sequence (F4B5V3 entry or part of it M103N) above, with N103A counted along it
Ah‐BarR T134A (P ah‐barR promoter, mKate2 reporter), sequence (F4B5V3 entry or part of it T134A): as the sequence (F4B5V3 entry or part of it M103N) above, with N103M, T134A counted along it

Compound: NCCC(=O)O [β‐alanine]
- Basal fluorescence output b [1]: 2281 RFU
- Dynamic range µ [1]: 4.11
- EC50 [1]: 460 µM
- Hill coefficient n [1]: 1.48
- Maximum fluorescence increase a [1]: 9373 RFU
- EC50 [2]: 320 µM
- Hill coefficient n ([2]; BS1 M103T, 20 mg/L naringenin): 1.36
- Dynamic range µ ([2]; BS1 M103T, µ = a/b): 2.49
- Basal fluorescence output b [2, 10]: 3184 RFU
- Maximum fluorescence increase a [2, 10]: 7915 RFU
- effect of β‐alanine on formation of Ah‐BarR‐DNA complexes [3]: did not significantly alter
- Basal fluorescence output b [4]: 2485 RFU
- Dynamic range µ [4]: 3.56
- Hill coefficient n [4]: 1.60
- Maximum fluorescence increase a [4]: 8840 RFU
- EC50 ([4]; read-out: Threshold θ, BS1 trunc, 20 mg/L naringenin): 260 µM
- EC50 [5]: 1350 µM
- Hill coefficient n ([5]; BS1 M103A, 20 mg/L naringenin): 1.88
- Dynamic range µ ([5]; BS1 M103A, µ = a/b): 3.25
- Basal fluorescence output b [5, 11]: 2289 RFU
- Maximum fluorescence increase a [5, 11]: 7429 RFU
- EC50 [6]: 1610 µM
- Hill coefficient n ([6]; BS1 T134A, 20 mg/L naringenin): 1.68
- Dynamic range µ ([6]; BS1 T134A, µ = a/b): 4.06
- Basal fluorescence output b [6, 12]: 2145 RFU
- Maximum fluorescence increase a [6, 12]: 8703 RFU
- EC50 [7]: 960 µM
- Hill coefficient n ([7]; BS1 T136A, 20 mg/L naringenin): 1.36
- Dynamic range µ ([7]; BS1 T136A, µ = a/b): 3.31
- Basal fluorescence output b [7, 13]: 2469 RFU
- Maximum fluorescence increase a [7, 13]: 8171 RFU
- EC50 [8]: 90 µM
- Hill coefficient n ([8]; BS4, 20 mg/L naringenin): 2.99
- Dynamic range µ ([8]; BS4, µ = a/b): 5.15
- Basal fluorescence output b [8, 14]: 13,873 RFU
- Maximum fluorescence increase a [8, 14]: 71,426 RFU
- EC50 [9]: 100 µM
- Hill coefficient n ([9]; BS3, 20 mg/L naringenin): 2.00
- Dynamic range µ ([9]; BS3, µ = a/b): 1.17
- Basal fluorescence output b [9, 15]: 4595 RFU
- Maximum fluorescence increase a [9, 15]: 5355 RFU
